PMC6692352, “DF2726A, a new IL-8 signalling inhibitor, is able to counteract chemotherapy-induced neuropathic pain” (Scientific Reports, 2019)

How the values were obtained:
p-FAK = p-FAK western blotting in F11-derived neurons; type: cell-based; conditions: 24 h
p-JAK2 = p-JAK2 western blotting in F11-derived neurons; type: cell-based; conditions: 24 h
[1] = system: CXCL1-induced hPMN chemotaxis; assay: CXCL1-induced hPMN chemotaxis, 48-well microchemotaxis chamber; type: cell-based, human; conditions: hPMN pre-incubated 15 min at 37°C, migration 45 min
Description: chemotherapy-induced neuropathic pain”
Benedetti, Antonio Giordano, Annamaria Cimini, Marcello Allegretti.
Chemokines were from PeproTech (London, UK). Chemicals and cell culture reagents were from Sigma Aldrich (Saint Louis, MI, USA).
Cell isolation and culture
L’Aquila, Italy. Ethical clearance was obtained to perform these experiments. Human PMNs were […]
blood cells as previously described 1.
Cell viability, as measured by Trypan Blue dye exclusion, was greater than 98%. […]
microchemotaxis chamber, as previously described 2. Briefly, 25 µl of control medium (PBS for […]
the lower compartment of the chemotaxis chamber. […]
vehicle were seeded in the upper compartment. The two compartments were separated by 5 µm pre-size polycarbonate filter (polyvinylpyrrolidone-free for PMN chemotaxis). The chamber was […]
Physicochemical characterization […]
and a turbidity-sensing device. […]
water/HBSS to a final concentration of 10 μM. Cell membrane homogenates (48 μg protein) were […]

[2] = system: IL-8-induced hPMN chemotaxis; conditions: read-out: IC50 (CXCL8 / IL-8-induced hPMN chemotaxis); hPMN pre-incubated 15 min at 37°C, migration 45 min
IENFs (PGP9.5) = assay: Oxaliplatin-induced loss of IENFs, PGP9.5 immunofluorescence of paw sections; type: in vivo, male Wistar rats; conditions: 30 mg/kg os, rat paw sections
Method: Animals were sacrificed and a biopsy (3 mm) was taken from pad of the right hind paw. Biopsies were immediately placed in Zamboni’s fixative, where they were left at 4 °C. Tissues were then transferred to 20% sucrose for at least 24 h and used for immunohistochemistry analysis. Specimens were frozen in Optimal Cutting Temperature compound (OCT, Sakura Finetek Inc, CA, USA) and sliced into 20 μm thick serial coronal sections by cryostat AMES LAB-TEK (Westmont, Illinois, USA). […]
Five slices were examined for each animal. For each slide, 4 fields were counted. For quantitative evaluation of IL-8/CINC-1 (the homolog of IL-8 in rat) and […], photomicrographs for each condition were analysed by ImageJ software (National Institutes of Health, Bethesda, MD, USA) as previously described. […] The signal was first measured on the tissue in an area devoid of signal at visual inspection and assumed as background; the threshold was then set at 1.5 times the background and the surface area and mean grey intensity were measured for all areas above the threshold. […]

CYP 2C19 = CYP 2C19 (Homo sapiens, UniProt P33261); assay: CYP inhibition 2C19; type: in vitro ADME
Sequence of CYP 2C19 (P33261 whole entry): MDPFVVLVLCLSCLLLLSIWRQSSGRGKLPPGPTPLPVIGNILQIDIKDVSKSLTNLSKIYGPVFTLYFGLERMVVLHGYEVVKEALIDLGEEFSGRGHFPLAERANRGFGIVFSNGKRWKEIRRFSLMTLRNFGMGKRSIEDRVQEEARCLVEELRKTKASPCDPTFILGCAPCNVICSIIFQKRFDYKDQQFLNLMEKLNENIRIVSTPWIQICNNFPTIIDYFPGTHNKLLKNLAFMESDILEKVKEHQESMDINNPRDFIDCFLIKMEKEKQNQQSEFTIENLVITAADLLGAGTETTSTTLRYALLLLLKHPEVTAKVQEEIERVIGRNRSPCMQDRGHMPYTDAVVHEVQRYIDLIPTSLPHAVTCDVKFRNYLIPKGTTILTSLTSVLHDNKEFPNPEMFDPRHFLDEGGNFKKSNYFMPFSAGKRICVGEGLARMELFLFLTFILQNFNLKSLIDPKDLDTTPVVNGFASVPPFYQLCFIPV
Description: (§1) Table 1 Physicochemical and in Vitro ADME Properties of DF2726A. | column: DF2726A

[3] = system: 55 targets among GCPRs, ion channels, enzymes and transporters; conditions: binding panel tested at 10 µM; ion channels up to 30 µM
Method: target activities towards a panel of GPCRs, enzymes, ion channels, transporters and nuclear
incubated for 60 min at 22°C with the respective reference compound in the absence or presence of
the test compound in a buffer containing 50 mM Tris-HCl (pH 7.4), 2 mM MgCl2 and 1 mM
EDTA. After incubation, the samples were filtered rapidly under vacuum through glass fiber filters
(GF/B, Packard Instruments, Meriden, CT, USA) presoaked with 0.3% polyethylenimine (PEI) and
rinsed several times with ice-cold 50 mM Tris-HCl using a 96-sample cell harvester (Unifilter,
Packard Instruments). The filters were dried, then counted for radioactivity in a scintillation counter
(Topcount, Packard Instruments) using a scintillation cocktail (Microscint-O, Packard Instruments).
The results were expressed as the percentage inhibition of the control radioligand-specific binding.
The compounds were tested at a single concentration of 10 µM in triplicate.
Tested targets were as follows:
GPCR: A2A (agonist radioligand), α1A (antagonist radioligand), α2A (antagonist radioligand), β1
(agonist radioligand), β2 (agonist radioligand), BK1 (antagonist and agonist radioligand), BK2
(antagonist and agonist radioligand), CB1 (antagonist and agonist radioligand), CB2 (antagonist and […]

CYP 2D6 = CYP 2D6 (Homo sapiens, UniProt P10635); assay: CYP inhibition 2D6; type: in vitro ADME
Sequence of CYP 2D6 (P10635 whole entry): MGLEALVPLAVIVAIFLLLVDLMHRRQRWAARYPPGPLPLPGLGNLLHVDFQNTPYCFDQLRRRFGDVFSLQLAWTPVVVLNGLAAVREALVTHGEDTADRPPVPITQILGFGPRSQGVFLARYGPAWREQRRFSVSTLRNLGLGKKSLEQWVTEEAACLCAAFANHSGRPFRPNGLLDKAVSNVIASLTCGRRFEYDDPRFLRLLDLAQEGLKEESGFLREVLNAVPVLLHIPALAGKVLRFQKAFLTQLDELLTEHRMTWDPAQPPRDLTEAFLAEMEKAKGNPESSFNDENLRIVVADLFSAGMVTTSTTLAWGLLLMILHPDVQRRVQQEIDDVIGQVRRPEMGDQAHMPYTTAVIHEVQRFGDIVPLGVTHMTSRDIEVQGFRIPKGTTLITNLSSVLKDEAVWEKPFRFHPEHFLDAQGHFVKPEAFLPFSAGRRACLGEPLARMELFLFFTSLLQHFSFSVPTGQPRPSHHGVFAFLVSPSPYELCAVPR
Description: as §1

TRPA1 = assay: Western blot of DRG of oxaliplatin rats, TRPA1; type: in vivo, male Wistar rats; conditions: 30 mg/kg os
Method: Animals were sacrificed and dorsal root ganglia (DRG) (L4-L6) were removed and stored at […]. They were homogenized on ice-cold lysis buffer [20 mM Tris–HCl (pH 7.5), 10 mM NaF, 150 mM NaCl, 1% Nonidet P-40, 1 mM phenylmethylsulfonyl fluoride, 1 mM Na3VO4, leupeptin and trypsin inhibitor 10 μg/mL; 20 µl/sample, as previously described.
After 1 h, tissue lysates were obtained by centrifugation at 20,000 g for 15 min at 4 °C. Protein concentrations were estimated by the Bio-Rad protein assay using bovine serum albumin as standard.
DRG lysate proteins (30 μg) were dissolved in Laemmli sample buffer, boiled for 5 min, and separated on SDS-polyacrylamide gel elctrophoresis and transferred onto nitrocellulose membrane (240 mA for 40 min at room temperature). […] The protein bands were scanned and densitometrically analyzed with a model GS-700 imaging densitometer (Bio-Rad Laboratories, Milan, Italy). […]

[4] = DF2726A 1 µM + oxaliplatin 20 µM

CC(C)(C(=O)O)c1ccc(Nc2nc(C(F)(F)F)cs2)cc1 [DF2726A]
p-FAK levels, oxaliplatin-treated neurons (p-FAK; [4]): decreased in the presence of DF2726A
p-FAK levels, paclitaxel-treated neurons (p-FAK; DF2726A + paclitaxel 10 nM): decreased in the presence of DF2726A
p-JAK2, oxaliplatin-treated neurons (p-JAK2; [4]): restored control conditions
p-JAK2, paclitaxel-treated neurons (p-JAK2; DF2726A + paclitaxel 10 nM): restored control conditions
IC50 [1]: 8 nM
IC50 [2]: 10 ± 5 nM
Effect on oxaliplatin-induced loss of IENFs (PGP9.5) (IENFs (PGP9.5)): preventing the loss of epidermal innervation
IC50 (CYP 2C19): > 30000 nM
Selectivity for 55 targets in counterscreens [3]: > 100 fold
IC50 (CYP 2D6): > 30000 nM
TRPA1 expression in DRG of oxaliplatin rats (TRPA1): significant reduction in the expression
